The values below are quoted from earlier work in publication PMC10482267, “Safety, tolerability, pharmacokinetics, and pharmacodynamics of single and multiple doses of aficamten in healthy Chinese participants: a randomized, double-blind, placebo-controlled, phase 1 study” (Frontiers in Pharmacology, 2023).

On the set-up of the data set: method as in Heitner et al., 2019; Olivotto et al., 2020. The settings on record: humans; ref Heitner et al., 2019; Olivotto et al., 2020; cited from earlier work.

The structures appear in SMILES notation.

On to `CC(C)n1c(=O)cc(N[C@@H](C)c2ccccc2)[nH]c1=O` [Mavacamten, mavacamten], for which the time to steady-state result is reported as “approximately 6 weeks”.
